Tests used:
[1] = test system: Lactococcus lactis CNRZ 117; assay: Bioactivity assay, solid agar medium test (zones of inhibition); format: cell-based; conditions: for zone of inhibition, both modified peptides together: prepared in vitro: HalA1-Xa/HalA2-Xa modified by HalM1/HalM2, leader removed by Factor Xa, both peptides applied
Procedure: Bioactivity Assay. The inhibitory activity of haloduracin isolated from the producing strain and prepared in vitro was assayed using the solid agar medium test. Liquid molten GM17 agar (4% M17, 0.5% glucose, 1.5% agar) was cooled to 50° C. and seeded with an overnight culture of the indicator strain Lactococcus lactis CNRZ 117. After agar solidification in a Petri dish, samples were applied to a small well created in the medium. Assay samples were typically concentrated to dryness using a speed vac and rehydrated in a small volume (5-15 μL) of sterile water for application purposes. The cell-free solution isolated from B. halodurans C-125 was applied directly to the plate without further concentration. Plates were incubated overnight at room temperature and zones of inhibition were observed the next day.

[2] = Ltn1 and Ltn2 acting in synergy in a 1:1 ratio; cited from earlier work

Hal1: mature haloduracin alpha peptide from HalA1, SEQ ID NO:5; three dehydrations and one disulfide
zones of growth inhibition / antimicrobial activity after iodoacetamide modification ([1]; peptides isolated from B. halodurans, reduced and alkylated with iodoacetamide (Hal1 two adducts, Hal2 zero adducts), excess IAA removed): did not abolish antimicrobial activity

haloduracin: two-component lantibiotic of Bacillus halodurans C-125 composed of the modified peptides Hal1 (SEQ ID NO:5) and Hal2 (SEQ ID NO:6)
zone of growth inhibition ([1]; cell-free supernatant isolated from producer strain B. halodurans C-125, applied to indicator strain): a zone of growth inhibition was produced
zone of inhibition, both modified peptides together [1]: comparable to the bactericidal effects exhibited by the peptides isolated from the producer strain
zone of inhibition, both modified peptides together ([1]; listed as haloduracin peptides prepared in vitro): zone of inhibition comparable to that produced by Hal1 and Hal2 isolated from B. halodurans

lacticin 3147
antibacterial activity [2]: nanomolar antibacterial activity
